The compounds below were run against human Cav2.2 (Homo sapiens, UniProt Q00975) (assay: Assessment of calcium channel activity using FLIPR (Ca2+ influx in IMR32 cells)). Conditions: not given.
human Cav2.2, sequence (Q00975 whole entry): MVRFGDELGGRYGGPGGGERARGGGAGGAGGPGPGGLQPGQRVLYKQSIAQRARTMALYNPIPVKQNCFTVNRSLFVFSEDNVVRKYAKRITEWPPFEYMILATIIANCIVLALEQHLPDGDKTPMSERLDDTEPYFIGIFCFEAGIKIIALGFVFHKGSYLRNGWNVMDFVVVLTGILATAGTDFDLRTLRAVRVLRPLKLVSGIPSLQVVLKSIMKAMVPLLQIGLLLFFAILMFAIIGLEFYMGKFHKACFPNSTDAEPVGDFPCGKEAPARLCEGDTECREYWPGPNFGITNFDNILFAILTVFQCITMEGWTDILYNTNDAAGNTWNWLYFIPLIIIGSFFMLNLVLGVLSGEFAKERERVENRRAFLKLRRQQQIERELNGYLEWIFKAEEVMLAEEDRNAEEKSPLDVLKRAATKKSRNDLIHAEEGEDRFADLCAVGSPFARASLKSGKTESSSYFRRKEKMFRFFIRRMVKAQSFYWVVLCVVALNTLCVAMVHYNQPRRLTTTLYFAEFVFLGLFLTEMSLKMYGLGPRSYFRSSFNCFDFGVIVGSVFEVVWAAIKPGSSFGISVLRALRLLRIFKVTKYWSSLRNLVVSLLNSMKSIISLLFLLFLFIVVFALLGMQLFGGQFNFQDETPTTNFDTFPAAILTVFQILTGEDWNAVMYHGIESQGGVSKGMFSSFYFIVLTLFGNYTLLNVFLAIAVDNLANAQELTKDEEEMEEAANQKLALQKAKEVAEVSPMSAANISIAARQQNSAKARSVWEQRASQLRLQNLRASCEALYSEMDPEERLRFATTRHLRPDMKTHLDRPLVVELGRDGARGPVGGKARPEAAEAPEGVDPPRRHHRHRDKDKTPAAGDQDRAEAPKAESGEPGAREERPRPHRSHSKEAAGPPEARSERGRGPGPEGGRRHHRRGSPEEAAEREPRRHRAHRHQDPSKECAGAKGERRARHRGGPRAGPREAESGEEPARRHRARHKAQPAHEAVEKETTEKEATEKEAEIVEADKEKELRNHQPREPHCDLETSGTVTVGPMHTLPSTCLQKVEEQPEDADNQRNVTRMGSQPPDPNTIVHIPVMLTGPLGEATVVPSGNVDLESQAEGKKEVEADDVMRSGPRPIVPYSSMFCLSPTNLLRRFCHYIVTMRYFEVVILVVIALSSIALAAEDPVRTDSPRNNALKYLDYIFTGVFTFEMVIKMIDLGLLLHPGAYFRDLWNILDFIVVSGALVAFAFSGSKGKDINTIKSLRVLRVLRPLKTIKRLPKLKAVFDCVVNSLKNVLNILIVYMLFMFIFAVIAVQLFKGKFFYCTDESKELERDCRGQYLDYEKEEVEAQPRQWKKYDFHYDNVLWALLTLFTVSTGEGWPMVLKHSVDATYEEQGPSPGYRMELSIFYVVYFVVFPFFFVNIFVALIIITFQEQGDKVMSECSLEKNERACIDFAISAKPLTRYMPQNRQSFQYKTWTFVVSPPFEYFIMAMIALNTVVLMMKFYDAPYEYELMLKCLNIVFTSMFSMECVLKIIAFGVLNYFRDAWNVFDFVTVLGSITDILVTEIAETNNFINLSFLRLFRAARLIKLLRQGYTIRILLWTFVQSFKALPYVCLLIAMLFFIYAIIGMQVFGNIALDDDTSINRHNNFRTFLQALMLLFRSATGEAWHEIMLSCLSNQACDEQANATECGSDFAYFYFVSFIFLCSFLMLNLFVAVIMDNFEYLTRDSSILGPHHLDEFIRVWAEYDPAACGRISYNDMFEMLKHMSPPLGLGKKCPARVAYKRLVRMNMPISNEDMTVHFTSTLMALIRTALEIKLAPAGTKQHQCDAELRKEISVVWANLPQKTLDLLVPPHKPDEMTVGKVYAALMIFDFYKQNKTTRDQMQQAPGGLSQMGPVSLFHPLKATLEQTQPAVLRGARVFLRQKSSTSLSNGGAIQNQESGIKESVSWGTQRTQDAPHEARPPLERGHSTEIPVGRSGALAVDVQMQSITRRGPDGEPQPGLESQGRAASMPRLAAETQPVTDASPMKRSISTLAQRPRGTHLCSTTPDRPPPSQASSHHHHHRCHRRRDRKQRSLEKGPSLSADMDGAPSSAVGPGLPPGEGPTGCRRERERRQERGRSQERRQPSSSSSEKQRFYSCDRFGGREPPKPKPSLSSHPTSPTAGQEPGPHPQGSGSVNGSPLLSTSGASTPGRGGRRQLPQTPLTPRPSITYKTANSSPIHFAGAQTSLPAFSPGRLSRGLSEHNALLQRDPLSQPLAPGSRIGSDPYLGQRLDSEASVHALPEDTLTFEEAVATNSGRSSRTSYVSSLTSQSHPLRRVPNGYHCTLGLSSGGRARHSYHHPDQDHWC
human Cav2.2, sequence (P54289 25-956 partner limits assumed): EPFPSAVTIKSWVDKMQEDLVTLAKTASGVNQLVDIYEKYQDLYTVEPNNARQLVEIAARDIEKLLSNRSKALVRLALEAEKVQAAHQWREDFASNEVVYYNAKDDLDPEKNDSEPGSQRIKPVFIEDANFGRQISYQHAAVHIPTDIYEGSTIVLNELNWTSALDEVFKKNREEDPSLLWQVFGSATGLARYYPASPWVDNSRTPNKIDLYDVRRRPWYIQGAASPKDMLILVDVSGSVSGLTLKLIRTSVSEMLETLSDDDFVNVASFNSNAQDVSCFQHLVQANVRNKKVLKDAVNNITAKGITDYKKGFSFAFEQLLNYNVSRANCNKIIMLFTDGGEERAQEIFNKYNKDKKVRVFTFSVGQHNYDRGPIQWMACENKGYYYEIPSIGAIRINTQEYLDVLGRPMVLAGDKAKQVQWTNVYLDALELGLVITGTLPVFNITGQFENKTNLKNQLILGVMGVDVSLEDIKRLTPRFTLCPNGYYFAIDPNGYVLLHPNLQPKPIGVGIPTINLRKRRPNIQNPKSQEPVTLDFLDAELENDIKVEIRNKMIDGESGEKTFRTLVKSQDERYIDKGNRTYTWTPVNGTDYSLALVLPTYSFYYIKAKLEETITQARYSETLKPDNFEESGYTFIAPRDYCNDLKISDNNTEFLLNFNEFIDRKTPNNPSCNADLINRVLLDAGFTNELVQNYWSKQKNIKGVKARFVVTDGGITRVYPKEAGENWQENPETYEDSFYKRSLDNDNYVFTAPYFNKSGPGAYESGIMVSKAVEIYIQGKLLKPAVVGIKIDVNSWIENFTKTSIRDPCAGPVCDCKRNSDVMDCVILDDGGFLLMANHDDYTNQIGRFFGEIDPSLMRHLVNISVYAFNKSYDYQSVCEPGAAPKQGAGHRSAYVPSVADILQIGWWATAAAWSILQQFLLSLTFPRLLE
human Cav2.2, sequence (P54289 957-1103 partner limits assumed): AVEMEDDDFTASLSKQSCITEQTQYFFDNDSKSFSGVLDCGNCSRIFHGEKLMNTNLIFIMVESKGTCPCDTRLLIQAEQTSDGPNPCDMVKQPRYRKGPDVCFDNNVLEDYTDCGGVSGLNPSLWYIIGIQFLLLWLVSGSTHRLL
human Cav2.2, sequence (P54284 whole entry partner): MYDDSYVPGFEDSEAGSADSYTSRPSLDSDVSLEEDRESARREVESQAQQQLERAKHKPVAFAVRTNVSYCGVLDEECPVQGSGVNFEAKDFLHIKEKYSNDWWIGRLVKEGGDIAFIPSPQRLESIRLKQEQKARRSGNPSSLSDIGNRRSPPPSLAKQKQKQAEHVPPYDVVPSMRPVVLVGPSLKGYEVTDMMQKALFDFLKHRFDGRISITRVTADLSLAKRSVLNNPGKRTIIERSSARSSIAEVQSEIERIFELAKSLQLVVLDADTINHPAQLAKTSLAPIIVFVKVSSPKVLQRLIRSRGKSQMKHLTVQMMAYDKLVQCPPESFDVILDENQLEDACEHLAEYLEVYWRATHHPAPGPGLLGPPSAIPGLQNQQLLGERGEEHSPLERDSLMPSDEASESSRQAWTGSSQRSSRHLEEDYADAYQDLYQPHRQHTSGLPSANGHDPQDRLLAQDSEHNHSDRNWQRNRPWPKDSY
Type: cell-based
Method in brief: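 IC50 values derive from nonlinear sigmoidal fitting of percent inhibition, relative to inhibitor-free activity, of Ca2+ influx read by FLIPR. Cells were IMR32 human neuroblastoma, plated at 1−1.2×10^5 per well and grown 48 h at 37 °C.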
With `O=C(N[C@H]1CC[C@@H]2CN(c3cccc(Cl)c3)C[C@@H]21)[C@@H]1C[C@@H](F)CN1` [Example 643, (4R)-N-[(3aR,4S,6aS)-2-(3-chlorophenyl)octahydrocyclopenta[c]pyrrol-4-yl]-4-fluoro-L-prolinamide] the IC50 was 3.57 µM.
For `O=C(N[C@H]1CC[C@H]2CN(Cc3cccc(C(F)(F)F)c3)C[C@H]21)C(c1ccc(F)cc1)c1ccc(F)cc1` (relative stereo) [Example 136, 2,2-bis(4-fluorophenyl)-N-{(3aS*,4S*,6aR*)-2-[3-(trifluoromethyl)benzyl]octahydrocyclopenta[c]pyrrol-4-yl}acetamide], the IC50 was 0.64 µM.
Compound `CN[C@@H](CC(C)C)C(=O)N[C@H]1CC[C@@H]2CN(c3ccnc(C(F)(F)F)n3)C[C@@H]21` [Example 723, N^2-methyl-N-{(3aR,4S,6aS)-2-[2-(trifluoromethyl)pyrimidin-4-yl]octahydrocyclopenta[c]pyrrol-4-yl}-L-leucinamide] has an IC50 of 11.9 µM.
`N[C@@H](CC1CC1)C(=O)N[C@H]1CC[C@@H]2CN(c3ccc(OC(F)(F)F)cc3)C[C@@H]21` [Example 776, 3-cyclopropyl-N-{(3aR,4S,6aS)-2-[4-(trifluoromethoxy)phenyl]octahydrocyclopenta[c]pyrrol-4-yl}-L-alaninamide] was tested, and the IC50 was 2.53 µM.
`Cc1c(CN[C@H]2CC[C@@H]3CN(c4cccc(C(F)(F)F)n4)C[C@@H]32)[nH]c2ccc(F)cc12` [Example 667, (3aR,4S,6aS)-N-[(5-fluoro-3-methyl-1H-indol-2-yl)methyl]-2-[6-(trifluoromethyl)pyridin-2-yl]octahydrocyclopenta[c]pyrrol-4-amine] gave an IC50 of 1.49 µM.
Work on `CN[C@H](C(=O)N[C@@H]1CC[C@H]2CN(Cc3ccccc3)C[C@H]21)C(C)C` [Example 351, N^1-[(3aS,4R,6aR)-2-benzyloctahydrocyclopenta[c]pyrrol-4-yl]-N^2-methyl-L-valinamide] yielded an IC50 greater than 30 µM.
Compound `CCC[C@H](NC)C(=O)N[C@H]1CC[C@@H]2CN(c3cccc(C(F)(F)F)n3)C[C@@H]21` [Example 588, N^2-methyl-N-{(3aR,4S,6aS)-2-[6-(trifluoromethyl)pyridin-2-yl]octahydrocyclopenta[c]pyrrol-4-yl}-L-norvalinamide] has an IC50 of 1.02 µM.
`FC(F)(F)c1cccc(N2C[C@H]3CC[C@H](NCc4c[nH]cn4)[C@H]3C2)n1` [Example 677, (3aR,4S,6aS)-N-(1H-imidazol-4-ylmethyl)-2-[6-(trifluoromethyl)pyridin-2-yl]octahydrocyclopenta[c]pyrrol-4-amine] was tested, and the IC50 was 3.35 µM.
`CN[C@@H](CC(C)C)C(=O)N[C@H]1CC[C@H]2CN(Cc3ccccc3)C[C@H]21` [Example 360, N^1-[(3aS,4S,6aR)-2-benzyloctahydrocyclopenta[c]pyrrol-4-yl]-N^2-methyl-L-leucinamide] gave an IC50 greater than 30 µM.
With `O=C(N[C@H]1CC[C@H]2CN(Cc3ccccc3)C[C@H]21)C(c1ccccc1)C1CCCC1` (relative stereo) [Example 7, N-[(3aS*,4S*,6aR*)-2-benzyloctahydrocyclopenta[c]pyrrol-4-yl]-2-cyclopentyl-2-phenylacetamide] the IC50 was 0.92 µM.
Work on `FC(F)(F)c1cccc(N2C[C@H]3CC[C@H](NCc4c[nH]nc4-c4ccc(Cl)cc4)[C@H]3C2)n1` [Example 666, (3aR,4S,6aS)-N-{[3-(4-chlorophenyl)-1H-pyrazol-4-yl]methyl}-2-[6-(trifluoromethyl)pyridin-2-yl]octahydrocyclopenta[c]pyrrol-4-amine] yielded an IC50 of 1.37 µM.
Compound `COc1ccc2[nH]c(CN[C@H]3CC[C@@H]4CN(c5cccc(C(F)(F)F)n5)C[C@@H]43)c(C)c2c1` [Example 668, (3aR,4S,6aS)-N-[(5-methoxy-3-methyl-1H-indol-2-yl)methyl]-2-[6-(trifluoromethyl)pyridin-2-yl]octahydrocyclopenta[c]pyrrol-4-amine] has an IC50 of 1.55 µM.
Compound `CN[C@@H](CC(C)(C)C)C(=O)N[C@H]1CC[C@@H]2CN(Cc3ccccc3)C[C@@H]21` [Example 355, N^1-[(3aR,4S,6aS)-2-benzyloctahydrocyclopenta[c]pyrrol-4-yl]-N^2,4-dimethyl-L-leucinamide] has an IC50 greater than 30 µM.
With `O=C(N[C@H]1CC[C@@H]2CN(c3cccc(C(F)(F)F)n3)C[C@@H]21)c1ccc(-c2cccs2)o1` [Example 571, 5-(2-thienyl)-N-{(3aR,4S,6aS)-2-[6-(trifluoromethyl)pyridin-2-yl]octahydrocyclopenta[c]pyrrol-4-yl}-2-furamide] the IC50 was 1.11 µM.

Same assay, conditions: read-out: IC50 (μM) or percent inhibition (* indicates 3 minute incubation, otherwise 60 minute); IC50; 60 minute pre-incubation with compound; IMR32 cells, 80 mM KCl depolarization
`CC(C)C[C@@H](C(=O)N[C@H]1CC[C@H]2CN(Cc3ccccc3)C[C@H]21)N(C)C(=O)OC(C)(C)C` [Example 239, tert-butyl(S)-1-((3aS,4S,6aR)-2-benzyloctahydrocyclopenta[c]pyrrol-4-ylamino)-4-methyl-1-oxopentan-2-yl(methyl)carbamate] was tested, and the IC50 was 3.32 µM.
In the case of `CC(C)C[C@H](C(=O)N[C@@H]1CC[C@H]2CN(Cc3cccc(C(F)(F)F)c3)C[C@H]21)N(C)C(=O)OC(C)(C)C` (relative stereo) [Example 150, N^2-(tert-butyloxycarbonyl)-N^2-methyl-N^1-{(3aS*,4R*,6aR*)-2-[3-(trifluoromethyl)benzyl]octahydrocyclopenta[c]pyrrol-4-yl}-D-leucinamide], the IC50 is reported as 0.51 µM.
Work on `CN[C@@H](CC(C)C)C(=O)N[C@H]1CC[C@@H]2CN(Cc3ccc(C(F)(F)F)cc3)C[C@@H]21` [Example 380, N^2-methyl-N^1-{(3aR,4S,6aS)-2-[4-(trifluoromethyl)benzyl]octahydrocyclopenta[c]pyrrol-4-yl}-L-leucinamide] yielded an IC50 of 9.71 µM.
`O=C(CCC(c1ccc(F)cc1)c1ccc(F)cc1)N[C@H]1CC[C@H]2CN(Cc3cccc(C(F)(F)F)c3)C[C@H]21` (relative stereo) [Example 134, 4,4-bis(4-fluorophenyl)-N-{(3aS*,4S*,6aR*)-2-[3-(trifluoromethyl)benzyl]octahydrocyclopenta[c]pyrrol-4-yl}butanamide] gave an IC50 of 1.15 µM.
“4-methyl-N^1-{(3aR,4S,6aS)-2-[2-(methylsulfonyl)pyrimidin-5-yl]octahydrocyclopenta[c]pyrrol-4-yl}-L-leucinamide [Example 442]” gave an IC50 of 7.18 µM.
`CC(C)C(C(=O)N[C@H]1CC[C@H]2CN(Cc3ccccc3)C[C@H]21)c1ccccc1` (stereo partly drawn) [Example 14, N-[(3aS,4S,6aR)-2-benzyloctahydrocyclopenta[c]pyrrol-4-yl]-3-methyl-2-phenylbutanamide] gave an IC50 of 3.79 µM.
“(3aR,4S,6aS)-N-[(4-chloro-1H-indol-3-yl)methyl]-2-[6-(trifluoromethyl)pyridin-2-yl]octahydrocyclopenta[c]pyrrol-4-amine [Example 692]” gave an IC50 of 0.99 µM.
Compound `CCC[C@H](N)C(=O)N[C@H]1CC[C@@H]2CN(Cc3ccc(C(F)(F)F)cc3)C[C@@H]21` [Example 382, N^1-{(3aR,4S,6aS)-2-[4-(trifluoromethyl)benzyl]octahydrocyclopenta[c]pyrrol-4-yl}-L-norvalinamide] has an IC50 of 14.4 µM.
For `CC(C)[C@@H](CC(=O)N[C@@H]1CC[C@H]2CN(S(=O)(=O)c3cccc(C(F)(F)F)c3)C[C@H]21)NC(=O)OC(C)(C)C` [Example 267, tert-butyl(1R)-1-isopropyl-3-oxo-3-[((3aS,4R,6aR)-2-{[3-(trifluoromethyl)phenyl]sulfonyl}octahydrocyclopenta[c]pyrrol-4-yl)amino]propylcarbamate], the IC50 was 14.1 µM.
In the case of `CC(C)(C)[C@H](C(=O)N[C@@H]1CC[C@H]2CN(Cc3ccccc3)C[C@H]21)c1ccccc1` [Example 31, (2S)-N-[(3aS,4R,6aR)-2-benzyloctahydrocyclopenta[c]pyrrol-4-yl]-3,3-dimethyl-2-phenylbutanamide], the IC50 is reported as 1.65 µM.
Work on `O=C(N[C@@H]1CC[C@H]2CN(Cc3cc(C(F)(F)F)cc(C(F)(F)F)c3)C[C@H]21)C(C1CCCCC1)C1CCCCC1` [Example 77, N-{(3aS,4R,6aR)-2-[3,5-bis(trifluoromethyl)benzyl]octahydrocyclopenta[c]pyrrol-4-yl}-2,2-dicyclohexylacetamide] yielded an IC50 of 9.36 µM.
`Cc1ccccc1CN1C[C@H]2CC[C@H](NC(=O)C(c3ccccc3)C(C)C)[C@H]2C1` (stereo partly drawn) [Example 92, 3-methyl-N-[(3aR,4S,6aS)-2-(2-methylbenzyl)octahydrocyclopenta[c]pyrrol-4-yl]-2-phenylbutanamide] showed an IC50 of 2.04 µM.
`CN[C@@H](CC(C)C)C(=O)N[C@@H]1CC[C@H]2CN(Cc3ccc(F)cc3)C[C@H]21` [Example 450, N^1-[(3aS,4R,6aR)-2-(4-fluorobenzyl)octahydrocyclopenta[c]pyrrol-4-yl]-N^2-methyl-L-leucinamide] showed an IC50 of 9.26 µM.
For `CC(C)(C)CN[C@@H](CC(C)(C)C)C(=O)N[C@H]1CC[C@@H]2CN(S(=O)(=O)c3ccc(C(F)(F)F)cc3)C[C@@H]21` [Example 505, 4-methyl-N^2-neopentyl-N^1-((3aR,4S,6aS)-2-{[4-(trifluoromethyl)phenyl]sulfonyl}octahydrocyclopenta[c]pyrrol-4-yl)-L-leucinamide], the IC50 was 2.23 µM.
Compound `CC(C)(C)[C@H](NS(C)(=O)=O)C(=O)N[C@H]1CC[C@@H]2CN(Cc3ccc(C(F)(F)F)cc3)C[C@@H]21` [Example 520, 3-methyl-N^2-(methylsulfonyl)-N^1-{(3aR,4S,6aS)-2-[4-(trifluoromethyl)benzyl]octahydrocyclopenta[c]pyrrol-4-yl}-L-valinamide] has an IC50 of 12.8 µM.
`CC(C)C(C(=O)N[C@H]1CC[C@@H]2CN(Cc3cccc(C(F)(F)F)c3)C[C@@H]21)c1ccccc1` (stereo partly drawn) [Example 88, 3-methyl-2-phenyl-N-{(3aR,4S,6aS)-2-[3-(trifluoromethyl)benzyl]octahydrocyclopenta[c]pyrrol-4-yl}butanamide] showed an IC50 of 1.18 µM.
`CC(C)C(C(=O)N[C@H]1CC[C@@H]2CN(Cc3ccccc3F)C[C@@H]21)c1ccccc1` (stereo partly drawn) [Example 85, N-[(3aR,4S,6aS)-2-(2-fluorobenzyl)octahydrocyclopenta[c]pyrrol-4-yl]-3-methyl-2-phenylbutanamide] gave an IC50 of 3.59 µM.

— patent publication US8691865B2 (AbbVie Inc., priority 2008, dated 2014)
